The source made the active and inactive calls. No cut-off for these calls is given here.
system: Pseudoperonospora cubensis; assay: Fungicidal activity against Pseudoperonospora cubensis infected cucumber cv. Sagamihanjiro seedling assessed as inhibition of zoospore liberation from zoosporangia after 4 days by microscopic analysis in presence of cysteine; type: functional, organism-based; settings: not given

Which inhibition does the source give for `Cn1s/c(=N/c2ccc(Cl)cc2)nc1-c1ccccc1` here?
Its inhibition is “inactive”.

system: not listed separately; assay: Chemical stability of the compound in ethanol solution after 1 week; type: physicochemical; settings: 168 h

Which Stability does the source give for `Cn1s/c(=N/c2ccc(Cl)cc2)nc1-c1ccccc1` here?
Its Stability is “Stable”.

system: Pseudoperonospora cubensis; assay: Fungicidal activity against Pseudoperonospora cubensis infected cucumber cv. Sagamihanjiro seedling assessed as inhibition of zoospore liberation from zoosporangia after 4 days by microscopic analysis; type: functional, organism-based; settings: not given

For `Cn1s/c(=N/c2ccc(Cl)cc2)nc1-c1ccccc1`, which inhibition is on record?
Its inhibition is “Active”.

system: not listed separately; assay: Chemical stability of the compound in THF solution after 1 day; type: physicochemical; settings: 24 h

For `Cn1s/c(=N/c2ccc(Cl)cc2)nc1-c1ccccc1`, which Stability is on record?
The Stability was “Unstable”.

system: not listed separately; assay: Chemical stability of the compound in acetonitrile solution after 1 day; type: physicochemical; settings: 24 h

For `Cn1s/c(=N/c2ccc(Cl)cc2)nc1-c1ccccc1`, which Stability is on record?
The Stability was “Unstable”.

system: not listed separately; assay: Chemical stability of the compound in acetone solution after 1 day; type: physicochemical; settings: 24 h

With `Cn1s/c(=N/c2ccc(Cl)cc2)nc1-c1ccccc1` as the compound, how does the Stability read?
Its Stability is “Unstable”.

system: Pseudoperonospora cubensis; assay: Fungicidal activity against Pseudoperonospora cubensis infected in cucumber cv. Sagamihanjiro seedling assessed as reduction in leaf lesion after 4 days by pot test; type: functional, organism-based; settings: not given

With `Cn1s/c(=N/c2ccc(Cl)cc2Cl)nc1-c1ccccc1` as the compound, how does the EC50 read?
The EC50 was 63.4 ppm.

For `CN(C)c1ccc(/N=c2\nc(-c3ccc(Cl)cc3)n(C)s2)cc1`, which EC50 is on record?
The EC50 was 141.5 ppm.

With `Cn1s/c(=N/c2ccc(Cl)cc2)nc1Cc1ccccc1` as the compound, how does the EC50 read?
Its EC50 is 79.1 ppm.

With `Cn1s/c(=N/c2ccc(Cl)cc2)nc1-c1ccc([N+](=O)[O-])cc1` as the compound, how does the EC50 read?
The EC50 was 29.7 ppm.

For `Cn1s/c(=N/c2ccc(Cl)c(Cl)c2)nc1-c1ccc(Cl)cc1`, which EC50 is on record?
The EC50 was 24.7 ppm.

For `Cn1s/c(=N/c2ccc(F)cc2)nc1-c1ccc(Cl)cc1`, which EC50 is on record?
Its EC50 is 22.1 ppm.

Which EC50 does the source give for `Cn1s/c(=N/c2ccc(Cl)cc2)nc1-c1ccc(Cl)c(Cl)c1` here?
Its EC50 is 9.5 ppm.

Which EC50 does the source give for `Clc1ccc(/N=c2\nc3n(s2)CCCS3)cc1` here?
The EC50 was > 400 ppm.

With `Cc1ccc(/N=c2\nc(-c3ccccc3)n(C)s2)cc1` as the compound, how does the EC50 read?
Its EC50 is 60.2 ppm.

With `Cn1s/c(=N/c2ccccc2)nc1-c1ccccc1` as the compound, how does the EC50 read?
Its EC50 is 45.3 ppm.

With `CCn1s/c(=N/c2ccc(Cl)cc2)nc1-c1ccccc1` as the compound, how does the EC50 read?
The EC50 was 13.6 ppm.

For `CCCn1s/c(=N/c2ccc(C)cc2)nc1-c1ccccc1`, which EC50 is on record?
The EC50 was 141.5 ppm.

For `Cn1s/c(=N/c2ccc(Cl)cc2)nc1SCc1ccccc1`, which EC50 is on record?
Its EC50 is 46.2 ppm.

Which EC50 does the source give for `CN(c1ccccc1)c1n/c(=N\c2ccc(Cl)cc2)sn1C` here?
Its EC50 is 37.5 ppm.

For `Cn1s/c(=N/c2ccc(Br)cc2)nc1-c1ccccc1`, which EC50 is on record?
Its EC50 is 17.9 ppm.

For `CC1(C)Cn2s/c(=N/c3ccc(Cl)cc3)nc2S1`, which EC50 is on record?
The EC50 was 35.5 ppm.

For `Cn1o/c(=N/c2ccc(Cl)cc2)nc1-c1ccc(Cl)cc1`, which EC50 is on record?
Its EC50 is > 400 ppm.

For `Cc1cccc(/N=c2\nc(-c3ccc(Cl)cc3)n(C)s2)c1`, which EC50 is on record?
The EC50 was 26.1 ppm.

With `CCN(CC)c1n/c(=N\c2ccc(Cl)cc2)sn1C` as the compound, how does the EC50 read?
The EC50 was 13.1 ppm.

Which EC50 does the source give for `CCOC(=O)C1CN(c2ccc(Cl)cc2)/C(=N/C(=N/C)c2ccccc2)S1` (stereo not drawn) here?
The EC50 was 92.8 ppm.

Which EC50 does the source give for `Cn1s/c(=N/c2cccc(Cl)c2)nc1-c1ccc(Cl)cc1` here?
The EC50 was 25.9 ppm.

Which EC50 does the source give for `Cn1s/c(=N/c2ccc(-c3ccccc3)cc2)nc1-c1ccccc1` here?
Its EC50 is 23.1 ppm.

Which EC50 does the source give for `Cn1s/c(=N/c2ccc(Cl)cc2)nc1-c1ccccc1Cl` here?
The EC50 was 11.6 ppm.

With `C/N=C(/N=c1\snc(-c2ccccc2)n1-c1ccc(Cl)cc1)c1ccccc1` as the compound, how does the EC50 read?
Its EC50 is 45.3 ppm.

Which EC50 does the source give for `C/N=C(/N=c1\sn(-c2ccccc2)c(=S)n1-c1ccc(Cl)cc1)c1ccccc1` here?
Its EC50 is 33.6 ppm.

For `Br.CC/N=c1\nc(-c2ccccc2)n(CC)s1`, which EC50 is on record?
Its EC50 is > 400 ppm.

Which EC50 does the source give for `Cn1s/c(=N/c2ccc(Cl)cc2)nc1-c1ccco1` here?
Its EC50 is 8.4 ppm.

For `Cn1s/c(=N/c2ccccc2-c2ccccc2)nc1-c1ccccc1`, which EC50 is on record?
Its EC50 is 30.4 ppm.

With `Cn1s/c(=N/c2cccc(Cl)c2Cl)nc1-c1ccc(Cl)cc1` as the compound, how does the EC50 read?
The EC50 was 179 ppm.

For `Cn1s/c(=N/c2ccc(I)cc2)nc1-c1ccccc1`, which EC50 is on record?
The EC50 was 100 ppm.

Which EC50 does the source give for `Cc1cc(C)cc(/N=c2\nc(-c3ccc(Cl)cc3)n(C)s2)c1` here?
The EC50 was 26.4 ppm.

With `Cn1s/c(=N/c2ccccc2)nc1-c1ccc(Cl)cc1` as the compound, how does the EC50 read?
The EC50 was 23.4 ppm.

For `CCOc1n/c(=N\c2ccc(Cl)cc2)sn1C`, which EC50 is on record?
Its EC50 is 308.1 ppm.

With `Cn1s/c(=N/C(=O)c2ccc(Cl)cc2)nc1-c1ccc(Cl)cc1` as the compound, how does the EC50 read?
Its EC50 is 400 ppm.

Which EC50 does the source give for `Clc1ccc(Nc2nc(-c3ccccc3)ns2)cc1` here?
The EC50 was “Not Active”.

With `CCSc1n/c(=N\c2ccc(Cl)cc2)sn1C` as the compound, how does the EC50 read?
The EC50 was 36.2 ppm.

For `CC(C)c1n/c(=N\c2ccc(Cl)cc2)sn1C`, which EC50 is on record?
Its EC50 is 252.7 ppm.

With `CN(C)C(=O)n1s/c(=N/c2ccc(Cl)cc2)nc1-c1ccccc1` as the compound, how does the EC50 read?
Its EC50 is 87.5 ppm.

Which EC50 does the source give for `Cn1s/c(=N/c2ccc(Cl)cc2)nc1C(Cl)(Cl)Cl` here?
The EC50 was 37 ppm.

With `COc1ccc(/N=c2\nc(-c3ccc(Cl)cc3)n(C)s2)cc1` as the compound, how does the EC50 read?
Its EC50 is 11 ppm.

Which EC50 does the source give for `Cn1s/c(=N/c2ccc(Nc3ccccc3)cc2)nc1-c1ccccc1` here?
The EC50 was 81 ppm.

For `Cc1ccc(/N=c2\nc(-c3ccc(Cl)cc3)n(C)s2)cc1C`, which EC50 is on record?
Its EC50 is 13.2 ppm.

For `Cn1s/c(=N/c2ccc([N+](=O)[O-])cc2)nc1-c1ccccc1`, which EC50 is on record?
The EC50 was > 400 ppm.

With `CCCCc1ccc(/N=c2\nc(-c3ccc(Cl)cc3)n(C)s2)cc1` as the compound, how does the EC50 read?
Its EC50 is 30.4 ppm.

For `Cn1s/c(=N/c2ccc(C(C)(C)C)cc2)nc1-c1ccc(Cl)cc1`, which EC50 is on record?
The EC50 was 14 ppm.

Which EC50 does the source give for `Cc1cccc(C)c1/N=c1\nc(-c2ccccc2)n(C)s1` here?
Its EC50 is 128.1 ppm.

Which EC50 does the source give for `Cn1s/c(=N/c2ccc(Br)cc2)nc1-c1ccc(Cl)cc1Cl` here?
The EC50 was 131.1 ppm.

Which EC50 does the source give for `CN(C)c1n/c(=N\c2ccc(Cl)cc2)sn1C` here?
Its EC50 is 52.5 ppm.

For `Cn1s/c(=N/c2ccc(Br)cc2)nc1-c1ccc(Cl)cc1`, which EC50 is on record?
Its EC50 is 12 ppm.

For `CCn1s/c(=N/c2cc(Cl)cc(Cl)c2)nc1-c1ccc(Cl)cc1`, which EC50 is on record?
Its EC50 is 86.7 ppm.

Which EC50 does the source give for `Cn1s/c(=N/c2ccc(O)cc2)nc1-c1ccccc1` here?
The EC50 was 39.6 ppm.

Which EC50 does the source give for `Cc1cccc(/N=c2\nc(-c3ccc(Cl)cc3)n(C)s2)c1C` here?
Its EC50 is 25 ppm.

With `Cn1s/c(=N/c2ccc(Oc3ccc(Cl)cc3)cc2)nc1-c1ccccc1` as the compound, how does the EC50 read?
Its EC50 is 31.9 ppm.

Which EC50 does the source give for `Cn1s/c(=N/c2ccc(Cl)cc2)nc1-c1ccccc1` here?
Its EC50 is 5.7 ppm.

With `Cc1n/c(=N\c2ccc(Cl)cc2)sn1C` as the compound, how does the EC50 read?
The EC50 was 66.9 ppm.

For `Cc1ccc(-c2n/c(=N\c3ccc(Cl)cc3)sn2C)cc1`, which EC50 is on record?
The EC50 was 37.4 ppm.

With `CC(C)n1s/c(=N/c2ccc(Cl)cc2)nc1-c1ccccc1` as the compound, how does the EC50 read?
Its EC50 is 72.9 ppm.

For `CCn1s/c(=N/c2ccc(Br)cc2)nc1-c1ccccc1`, which EC50 is on record?
The EC50 was 70.2 ppm.

With `COc1n/c(=N\c2ccc(Cl)cc2)sn1C` as the compound, how does the EC50 read?
The EC50 was > 400 ppm.

For `Cn1s/c(=N/c2ccc(Cl)cc2)nc1-c1cccc(Cl)c1`, which EC50 is on record?
Its EC50 is 25.2 ppm.

With `CCCn1s/c(=N/c2ccc(Cl)cc2)nc1-c1ccccc1` as the compound, how does the EC50 read?
The EC50 was 9.9 ppm.

With `CCc1n/c(=N\c2ccc(Cl)cc2)sn1C` as the compound, how does the EC50 read?
Its EC50 is 352.6 ppm.

Which EC50 does the source give for `CCc1ccc(/N=c2\nc(-c3ccc(Cl)cc3)n(C)s2)cc1` here?
The EC50 was 21.8 ppm.

Which EC50 does the source give for `Clc1ccc(/N=c2\nc(-c3ccc(Cl)cc3)n(-c3ccccc3)s2)cc1` here?
Its EC50 is > 400 ppm.

With `CCCc1ccc(/N=c2\nc(-c3ccc(Cl)cc3)n(C)s2)cc1` as the compound, how does the EC50 read?
The EC50 was 23.8 ppm.

For `COc1ccc(-c2n/c(=N\c3ccc(Cl)cc3)sn2C)cc1`, which EC50 is on record?
Its EC50 is 132.7 ppm.

For `CSc1n/c(=N\c2ccc(Cl)cc2)sn1C`, which EC50 is on record?
Its EC50 is 94.9 ppm.

With `Clc1ccc(/N=c2\nc3n(s2)CCS3)cc1` as the compound, how does the EC50 read?
Its EC50 is 68.6 ppm.

Which EC50 does the source give for `Clc1ccc(/N=c2\nc(-c3ccc(Cl)cc3)n(Cc3ccccc3)s2)cc1` here?
Its EC50 is 43.3 ppm.

With `Cc1ccc(/N=c2\nc(-c3ccc(Cl)cc3)n(C)s2)cc1` as the compound, how does the EC50 read?
Its EC50 is 9.2 ppm.

Which EC50 does the source give for `CCn1s/c(=N/c2cccc([N+](=O)[O-])c2)nc1-c1ccccc1` here?
Its EC50 is 63.1 ppm.

Which EC50 does the source give for `Cn1s/c(=N/c2ccc(Cl)cc2)nc1-c1ccc(Cl)cc1` here?
Its EC50 is 7.2 ppm.

For `CCn1s/c(=N/c2ccc(Cl)cc2)nc1-c1ccc(Cl)cc1`, which EC50 is on record?
The EC50 was 80.4 ppm.

Which EC50 does the source give for `C/N=C(/N=c1\ssc(=S)n1-c1ccc(Cl)cc1)c1ccccc1` here?
The EC50 was 84.1 ppm.

With `Cn1s/c(=N/c2ccc(Cl)cc2)nc1-c1cc(Cl)cc(Cl)c1` as the compound, how does the EC50 read?
Its EC50 is 66.8 ppm.

With `Br.Cn1s/c(=N/C2CCCCC2)nc1-c1ccccc1` as the compound, how does the EC50 read?
The EC50 was > 400 ppm.

species: Homo sapiens; assay: Inhibition of ADH (unknown origin) at 3 ug/ml after 1 hr; settings: not given

With `Cn1s/c(=N/c2ccc(Cl)cc2)nc1-c1ccccc1` as the compound, how does the inhibition read?
Its inhibition is “Active”.

From ChEMBL document CHEMBL3045379, “Synthesis and Fungicidal Activity of 3-1, 2, 4-Thiadiazolines” (J Pestic Sci, 1992)
